Experimental data reported in patent US20240366624A1, “METHODS AND COMPOSITIONS FOR TREATING THROMBOTIC DISEASE” (Washington University, priority 2023, published 2024).
Like-named read-outs stand apart in the source and are kept apart here.

Experiments:
WT mice = experiment: FeCl3-induced carotid arterial thrombosis; type: in vivo, mouse
Description: FIG. […]) is an exemplary embodiment of B12-5 having an antithrombotic effect without prolonging tail bleeding times in mice in accordance with the present disclosure. FIG. […]): Ex vivo effects of B12-5. Wild type (WT; […] One hour later, blood was drawn, followed by isolating platelets. P-selectin exposure (FIG. 19A) and αIIbβ3 integrin activation (FIG. 19B) were assessed in flow cytometry. FIG. 19C: Platelet aggregation was measured after treatment with 0.025 U/mL thrombin. The data represent the mean±SD (n=4). FIG. 19D: The plasma levels of B12-5 were analyzed by liquid chromatography-tandem mass spectrometry (LC-MS/MS) after intravenous injection of the compound (5 μg/g BW) into WT mice and quantified by comparison with a standard curve of B12-5 (mean±SD, n=3). FIG. 19E and FIG. 19F: After laser-induced cremaster arteriolar injury, intravital microscopy was conducted with WT mice pretreated with intravenous injection of saline, eptifibatide (5 μg/g BW), vehicle, or B12-5 (5 μg/g BW). The median integrated fluorescence intensities of anti-CD42c (F platelet) and anti-fibrin (F fibrin) antibodies (n=37-42 arterioles in 6 mice per group). Quantification of the antibody signal at a different time point after laser injury. FIG. 19G: Comparison of B12-5 (5 μg/g BW) with eptifibatide (5 μg/g BW) and their respective controls in inhibiting FeCl3-induced carotid artery thrombosis in WT mice. FIG. 19H and FIG. 19I: WT mice were treated with intravenous injection of vehicle control, eptifibatide (5 μg/g BW), or B12-5 (5 μg/g BW). Thirty minutes later, tail bleeding times and Hb contents were measured after amputation of the tail tip. […] Twenty-three hours later, neurological deficits were assessed by the Bederson score and grip test, and infarct volume was measured as described in Methods. […] Twenty-three hours later, the neurological deficit and infarct volume were measured as described above. […] P values determined by unpaired Student t test (FIG. […]), FIG. 19K, and FIG. 19O) or Mann-Whitney U test (FIG. 19(E-1), FIG. 19L, FIG. 19M, FIG. 19P, and FIG. 19Q). […]

ERO1α [1] = target: T1, ERO1α (Homo sapiens, UniProt Q96HE7); experiment: ERO1α activity assay; type: biochemical
T1 sequence (Q96HE7 24-468): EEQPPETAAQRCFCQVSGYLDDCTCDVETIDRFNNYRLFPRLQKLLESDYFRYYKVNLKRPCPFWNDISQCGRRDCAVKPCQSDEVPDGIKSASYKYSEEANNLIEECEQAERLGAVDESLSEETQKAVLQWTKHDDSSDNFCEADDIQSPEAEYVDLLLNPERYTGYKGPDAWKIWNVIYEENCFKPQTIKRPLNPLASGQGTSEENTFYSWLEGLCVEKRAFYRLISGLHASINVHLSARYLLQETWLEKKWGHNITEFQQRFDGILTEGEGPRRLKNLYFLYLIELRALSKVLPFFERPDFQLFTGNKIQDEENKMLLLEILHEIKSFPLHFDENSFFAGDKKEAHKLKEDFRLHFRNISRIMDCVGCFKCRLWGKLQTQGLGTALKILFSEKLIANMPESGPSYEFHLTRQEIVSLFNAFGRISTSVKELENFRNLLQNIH
From the text: FIG. 17(A-F) is an exemplary embodiment of identification of novel ERO1α inhibitors by high throughput screening in accordance with the present disclosure. FIG. 17A: A scheme of an ERO1α activity assay. FIG. 17B: Screening of chemical libraries in the ERO1α activity assay. FIG. 17C: The inhibitory effect of selected compounds on ERO1α activity. FIG. 17D: The inhibitory effect of selected compounds on PDI activity. FIG. 17E: The inhibitory effect of selected compounds on H2O2 activity. FIG. 17F: The inhibitory effect of selected compounds on thiol-reacting activity. The data represent the mean±SD (n=3). *P<0.05, **P<0.01, ***P<0.001, and ****P<0.0001 vs. vehicle control, Student's t-test.
To identify a novel ERO1α inhibitor, 5800 compounds were screened using an ERO1α activity assay (FIG. 17A and FIG. 17B). […] The selected compounds were further tested in assays measuring PDI, antioxidant, and thiol-reacting activities (FIG. 17D through FIG. 17F). […] B12 inhibited P-selectin exposure and αIIbβ3 activation in agonist-activated mouse and human platelets in a concentration-dependent manner (FIG. 18B through FIG. 18E).

ERO1α [2] = target: T1, ERO1α; settings: from studies; cited from earlier work

Row | Structure (SMILES) | time to occlusion (WT mice; 5 μg/g BW, vs vehicle control) | platelet thrombus formation (WT mice; iv 5 microg/g mouse) | IC50 (ERO1α [1]; read-out: IC50, ERO1α activity) | IC50 (ERO1α [1]; read-out: IC50, ERO1α inhibitor) | IC50 (ERO1α [2])
1 | O=C(CSc1nc(O)cc(O)n1)N1c2ccccc2Sc2ccccc21 [B12-5] | significantly prolonged | significantly reduced | 7.9 µM | 7.9 µM | 
2 | O=C(O)c1cc(N2N=C(C(F)(F)F)/C(=C/c3ccc(-c4ccccc4)o3)C2=O)ccc1Cl [EN460] |  |  |  |  | 1.9 µM
